Target: ATP-dependent translocase ABCB1 (Homo sapiens, UniProt P08183)
Experiment: TP_TRANSPORTER: cell accumulation of daunomycin in human K562/R7 leukemic cells
Type: functional, cell-based

ATP-dependent translocase ABCB1, sequence (P08183 whole entry): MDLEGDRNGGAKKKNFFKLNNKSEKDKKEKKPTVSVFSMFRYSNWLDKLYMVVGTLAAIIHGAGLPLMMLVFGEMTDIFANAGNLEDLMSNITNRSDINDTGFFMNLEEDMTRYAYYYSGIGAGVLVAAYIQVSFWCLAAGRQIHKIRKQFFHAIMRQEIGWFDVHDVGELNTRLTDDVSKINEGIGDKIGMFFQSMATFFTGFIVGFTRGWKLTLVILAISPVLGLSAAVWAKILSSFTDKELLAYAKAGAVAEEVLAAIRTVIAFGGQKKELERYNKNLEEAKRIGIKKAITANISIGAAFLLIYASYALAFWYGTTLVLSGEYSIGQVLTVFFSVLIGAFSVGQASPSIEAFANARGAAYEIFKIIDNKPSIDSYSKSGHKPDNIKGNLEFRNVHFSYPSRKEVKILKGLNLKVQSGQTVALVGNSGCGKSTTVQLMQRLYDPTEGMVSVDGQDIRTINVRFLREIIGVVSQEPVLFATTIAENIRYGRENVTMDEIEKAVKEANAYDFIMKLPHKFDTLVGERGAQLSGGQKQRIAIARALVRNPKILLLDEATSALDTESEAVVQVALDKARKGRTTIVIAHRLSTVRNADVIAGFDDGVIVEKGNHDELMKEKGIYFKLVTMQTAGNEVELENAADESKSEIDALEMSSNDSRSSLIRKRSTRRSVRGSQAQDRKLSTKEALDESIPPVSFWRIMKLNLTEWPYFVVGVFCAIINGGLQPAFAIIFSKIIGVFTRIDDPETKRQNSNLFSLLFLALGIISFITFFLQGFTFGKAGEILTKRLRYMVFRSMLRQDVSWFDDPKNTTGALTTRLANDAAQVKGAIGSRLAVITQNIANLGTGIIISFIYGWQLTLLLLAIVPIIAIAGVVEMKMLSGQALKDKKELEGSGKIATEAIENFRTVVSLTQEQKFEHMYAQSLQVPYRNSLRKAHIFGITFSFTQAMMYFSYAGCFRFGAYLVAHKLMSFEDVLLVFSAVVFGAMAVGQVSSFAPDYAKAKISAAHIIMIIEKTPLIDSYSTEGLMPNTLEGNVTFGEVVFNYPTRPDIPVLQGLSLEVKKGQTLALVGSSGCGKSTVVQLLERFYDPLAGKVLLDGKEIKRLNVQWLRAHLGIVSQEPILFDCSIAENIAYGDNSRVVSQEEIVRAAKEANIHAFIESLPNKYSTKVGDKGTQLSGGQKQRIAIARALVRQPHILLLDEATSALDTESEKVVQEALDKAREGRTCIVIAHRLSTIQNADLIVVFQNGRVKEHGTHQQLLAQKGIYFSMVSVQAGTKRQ

With `C=C1[C@@H](OC(C)=O)[C@@H](OC(C)=O)[C@@H](OC(=O)c2cccnc2)C(C)(C)/C=C/[C@H](C)[C@H](OC(C)=O)[C@@]2(O)C[C@@](C)(OC(C)=O)[C@H](OC(=O)c3ccccc3)[C@@H]2[C@H]1OC(C)=O` [PEPLUANIN] the Activity was “inhibitor [+]”.
